For the experiment, the system named is M. tuberculosis H37Rv (ATCC 27294). Nature of the experiment: Microplate Alamar Blue assay (MABA), MIC against replicating M. tuberculosis H37Rv. The class given is cell-based. Conditions: Mycobacterium tuberculosis, 168 h; H37Rv, MABA, 7H12 media, 7 days at 37° C.; MIC = lowest concentration reducing fluorescence by 90% relative to controls; read-out: M. tuberculosis MIC.

The term MIC denotes the lowest concentration that inhibits growth of the organism.

`COc1cc(C(O)(CCN(C)C)C(c2cc3cc(Br)ccc3nc2OC)c2cc(C)sc2C)cc(OC)n1` (stereo not shown) [Example 33, 1-(6-Bromo-2-methoxyquinolin-3-yl)-2-(2,6-dimethoxypyridin-4-yl)-4-(dimethylamino)-1-(2,5-dimethylthiophen-3-yl)butan-2-ol]: the MIC is below 0.02 µg/mL.

These data come from US10981891B2, “Antibacterial compounds and uses thereof” (priority 2016, dated 2021).
